According to PMC4013053, “Identification of Selective Small Molecule Inhibitors of the Nucleotide-Binding Oligomerization Domain 1 (NOD1) Signaling Pathway” (PLoS ONE, 2014):
≈ marks a conversion by molar mass, not a printed value. Like-named read-outs stand apart in the source and are kept apart here.

Assays:
TNFR1 = target: T1, TNFR1 (Homo sapiens, UniProt P19438); assay: TNFα-stimulated IL-8 release in 293/hNOD1 cells; format: cell-based; conditions: IL-8 released into medium
T1 construct: TNFR1 (TNFα stimulated IL-8 secretion in 293/hNOD1 cells); host or cells: 293/hNOD1 (HEK293)
T1 sequence (P19438 30-455): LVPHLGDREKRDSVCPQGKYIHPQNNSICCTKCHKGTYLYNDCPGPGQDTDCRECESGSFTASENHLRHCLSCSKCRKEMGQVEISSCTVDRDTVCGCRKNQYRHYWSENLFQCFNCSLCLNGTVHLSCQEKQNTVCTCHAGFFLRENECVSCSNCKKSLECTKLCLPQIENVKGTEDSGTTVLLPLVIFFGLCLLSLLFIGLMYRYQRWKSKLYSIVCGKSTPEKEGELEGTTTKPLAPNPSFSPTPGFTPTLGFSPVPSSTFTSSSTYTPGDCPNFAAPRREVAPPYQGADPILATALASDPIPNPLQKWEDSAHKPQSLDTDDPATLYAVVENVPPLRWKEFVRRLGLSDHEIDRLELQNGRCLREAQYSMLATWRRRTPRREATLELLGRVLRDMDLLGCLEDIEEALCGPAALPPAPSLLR
Protocol: (§1) Inhibitors of iE-DAP-stimulated IL-8 release were screened in a 1536-well assay in which 293/hNOD1 cells (5000 cells/well) in DMEM high glucose medium supplemented with 0.1% FBS and 10 µg/mL Blasticidin S were stimulated with 60 ng/mL (200 nM) iE-DAP (EC80) in the presence of 10 µM compounds. After 24 hours the amount of IL-8 secreted into the medium was determined by homogeneous time resolved fluorescence (HTRF) assay by the direct addition of a 1∶1 mix of europium cryptate and XL665-conjugated anti-IL-8 antibodies according to the manufacturer’s instructions (Cisbio). Fluorescence was measured after 2 hours in a ViewLux imager using UMB-AMC excitation and 618–671 nm emission filters (Perkin Elmer). […] Inhibition of TNFR1-induced IL-8 release was performed with 293/hNOD1 cells stimulated with 20 ng/mL (∼EC95) rhTNFα.
(§2) A high-throughput screen of about 2.2 million compounds was conducted for inhibitors of the NOD1 signaling pathway using suppression of iE-DAP stimulated IL-8 secretion in HEK293 cells stably expressing human NOD1 (293/hNOD1 cells). […] These assays were chosen to assess the selectivity of hits because the signaling pathways activated by these receptors converge at the level of the TAB/TAK1/IKK complex.

TLR2 = TLR2 (Homo sapiens, UniProt O60603); assay: Pam2CSK4-stimulated IL-8 release in 293/hTLR2 cells; format: cell-based; conditions: IL-8 released into medium
full length human RIP2 = target: T2, full length human RIP2 (Homo sapiens, UniProt O43353); assay: RIP2 kinase autophosphorylation (ADP-Glo); format: biochemical; conditions: RIPK2 autophosphorylation
T2 construct: autophosphorylation of full length human FLAG-6His tagged RIP2 expressed and purified from baculovirus; FLAG; 6His; made in house
Protocol: Direct effects of compounds on RIP2 kinase activity was determined by autophosphorylation of full length human FLAG-6His tagged RIP2 expressed and purified from baculovirus. Enzyme was pre-incubated with compounds in assay buffer (50 mM HEPES pH 7.5, 25 mM MgCl2, 0.05%[w/v] CHAPS, 1 mM DTT and 0.05 mg/mL BSA) in 384-well plates, and then incubated with 10 µM ATP for 2 hours at room temperature. The amount of ADP generated was measured using the ADP-Glo universal ADP detection assay for kinases (Promega) and luminescence quantified on a ViewLux imager.

[1] = Permeability across an artificial membrane; format: in vitro ADME; conditions: PAMPA
Text: (§3) Physicochemical analyses of compounds were completed at GSK.

[2] = Chromatographic hydrophobicity index (Chrom log D); format: physicochemical; conditions: pH 7.4
Text: as §3

CLND solubility = format: physicochemical; conditions: phosphate buffered saline with 5% DMSO, pH 7.4, aqueous buffer, kinetic from dmso stock; 5% DMSO pH7.4 phosphate buffered saline
Text: as §3

NOD1 = target: T3, NOD1 (Homo sapiens, UniProt Q9Y239); assay: iE-DAP-stimulated IL-8 release in 293/hNOD1 cells; format: cell-based
T3 sequence (Q9Y239 1-953): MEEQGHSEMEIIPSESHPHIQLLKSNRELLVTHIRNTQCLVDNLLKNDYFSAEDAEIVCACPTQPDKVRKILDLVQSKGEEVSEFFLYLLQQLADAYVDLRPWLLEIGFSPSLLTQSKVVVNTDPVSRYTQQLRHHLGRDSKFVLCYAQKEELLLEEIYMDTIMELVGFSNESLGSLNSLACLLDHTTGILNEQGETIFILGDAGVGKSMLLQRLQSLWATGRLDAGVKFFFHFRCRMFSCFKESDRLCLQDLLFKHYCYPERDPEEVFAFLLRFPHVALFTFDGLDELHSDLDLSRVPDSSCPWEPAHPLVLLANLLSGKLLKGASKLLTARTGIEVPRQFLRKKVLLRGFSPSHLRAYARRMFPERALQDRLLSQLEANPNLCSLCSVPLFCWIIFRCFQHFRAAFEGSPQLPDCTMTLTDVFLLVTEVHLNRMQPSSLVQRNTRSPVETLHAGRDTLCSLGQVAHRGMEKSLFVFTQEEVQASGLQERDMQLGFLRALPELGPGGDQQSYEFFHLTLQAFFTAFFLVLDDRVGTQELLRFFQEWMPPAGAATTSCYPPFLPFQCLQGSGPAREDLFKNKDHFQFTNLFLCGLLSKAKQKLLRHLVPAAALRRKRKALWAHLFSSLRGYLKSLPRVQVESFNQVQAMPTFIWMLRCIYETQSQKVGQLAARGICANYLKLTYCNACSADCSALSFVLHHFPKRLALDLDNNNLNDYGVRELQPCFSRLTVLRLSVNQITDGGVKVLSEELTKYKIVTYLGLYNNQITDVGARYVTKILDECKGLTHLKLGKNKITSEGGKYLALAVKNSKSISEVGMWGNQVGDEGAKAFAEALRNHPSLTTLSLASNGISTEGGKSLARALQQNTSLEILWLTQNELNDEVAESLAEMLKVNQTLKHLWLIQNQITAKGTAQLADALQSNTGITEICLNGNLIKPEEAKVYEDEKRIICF
Protocol: as §1, §2

α1-acid glycoprotein = α1-acid glycoprotein (AGP) binding; format: in vitro ADME
Text: as §3

human serum albumin = human serum albumin (Homo sapiens, UniProt P02768); assay: Human serum albumin (HSA) binding; format: in vitro ADME
Text: as §3

[3] = HEK293 stably expressing human NOD1, IL-8 released into medium, read-out: IC50 293/hNOD1 iE-DAP

Chain of TLR2 (O60603 21-784): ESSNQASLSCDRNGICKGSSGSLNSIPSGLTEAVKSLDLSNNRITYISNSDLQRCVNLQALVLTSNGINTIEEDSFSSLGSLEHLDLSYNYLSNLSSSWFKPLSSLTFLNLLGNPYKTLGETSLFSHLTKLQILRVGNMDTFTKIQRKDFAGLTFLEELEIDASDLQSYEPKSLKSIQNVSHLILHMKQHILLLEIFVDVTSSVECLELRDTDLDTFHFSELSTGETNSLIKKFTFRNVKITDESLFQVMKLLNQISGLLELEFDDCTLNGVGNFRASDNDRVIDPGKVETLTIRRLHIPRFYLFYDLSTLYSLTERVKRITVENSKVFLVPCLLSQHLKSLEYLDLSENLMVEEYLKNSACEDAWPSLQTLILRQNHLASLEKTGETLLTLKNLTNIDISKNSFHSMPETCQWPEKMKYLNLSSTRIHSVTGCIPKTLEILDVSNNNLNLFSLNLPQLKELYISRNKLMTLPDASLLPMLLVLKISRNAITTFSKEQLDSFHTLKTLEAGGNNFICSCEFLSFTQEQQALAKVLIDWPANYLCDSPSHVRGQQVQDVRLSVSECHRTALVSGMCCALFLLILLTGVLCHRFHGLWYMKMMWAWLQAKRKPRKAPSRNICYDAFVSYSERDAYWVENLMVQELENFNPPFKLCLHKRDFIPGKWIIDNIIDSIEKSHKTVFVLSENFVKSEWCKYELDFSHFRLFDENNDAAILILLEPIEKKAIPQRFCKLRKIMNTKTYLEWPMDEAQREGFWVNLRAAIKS
Chain of human serum albumin (P02768 25-609): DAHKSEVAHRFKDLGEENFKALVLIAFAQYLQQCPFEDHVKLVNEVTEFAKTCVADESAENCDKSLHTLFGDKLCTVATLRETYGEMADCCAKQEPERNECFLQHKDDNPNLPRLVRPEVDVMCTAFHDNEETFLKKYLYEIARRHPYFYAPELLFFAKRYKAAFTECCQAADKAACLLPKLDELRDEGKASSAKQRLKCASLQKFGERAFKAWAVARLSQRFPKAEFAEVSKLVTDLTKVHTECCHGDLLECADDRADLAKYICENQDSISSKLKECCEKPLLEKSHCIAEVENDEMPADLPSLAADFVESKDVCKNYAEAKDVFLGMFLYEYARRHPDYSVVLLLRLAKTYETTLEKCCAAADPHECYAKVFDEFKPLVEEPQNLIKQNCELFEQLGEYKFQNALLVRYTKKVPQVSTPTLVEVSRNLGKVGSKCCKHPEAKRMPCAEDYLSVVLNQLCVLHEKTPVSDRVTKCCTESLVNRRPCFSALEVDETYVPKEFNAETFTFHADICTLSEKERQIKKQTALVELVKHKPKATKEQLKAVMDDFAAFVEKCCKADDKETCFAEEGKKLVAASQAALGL
T2 sequence (O43353 whole entry): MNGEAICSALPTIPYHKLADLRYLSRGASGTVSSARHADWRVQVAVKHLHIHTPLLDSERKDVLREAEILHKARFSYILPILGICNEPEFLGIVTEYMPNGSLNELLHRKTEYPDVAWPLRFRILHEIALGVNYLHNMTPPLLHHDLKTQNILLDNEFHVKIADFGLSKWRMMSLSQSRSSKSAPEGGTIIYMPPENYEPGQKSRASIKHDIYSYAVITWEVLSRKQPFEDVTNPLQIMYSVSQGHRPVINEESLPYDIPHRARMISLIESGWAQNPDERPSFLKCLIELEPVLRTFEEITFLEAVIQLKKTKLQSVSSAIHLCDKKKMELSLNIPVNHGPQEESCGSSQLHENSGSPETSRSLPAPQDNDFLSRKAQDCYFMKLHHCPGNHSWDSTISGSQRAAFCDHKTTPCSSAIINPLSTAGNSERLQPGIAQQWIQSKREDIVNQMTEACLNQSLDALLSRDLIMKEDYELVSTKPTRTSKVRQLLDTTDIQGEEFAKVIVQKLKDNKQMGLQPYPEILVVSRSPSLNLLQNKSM

Row | Structure (SMILES) | IC50 (TNFR1) | IC50 (TLR2) | IC50 (full length human RIP2) | Papp [1] | chromatographic logD [2] | solubility (CLND solubility) | IC50 (NOD1; [3]) | IC50 (NOD1; iE-DAP-stimulated IL-8 production in 293/hNOD1 cells, SAR figures, read-out: NOD1 XC50) | AGP binding (α1-acid glycoprotein) | HSA binding (human serum albumin)
1 | Cc1ccc(S(=O)(=O)Nc2cccc(C(=O)Nc3ccc4nc(C)sc4c3)c2)cc1 [Compound 16] | > 30 µM | > 50 µM | > 50 µM | 22 ×10⁻⁶ cm/s | 4.89 | 14 µM (≈ 6.13 µg/mL) | 0.4 µM | 0.43 ± 0.1 µM | 85.71% | 97.2%
2 | Cc1nc2ccccc2c(=O)n1-c1ccc(Cl)c(NS(=O)(=O)c2ccccc2F)c1 [Compound 22] | > 50 µM | > 50 µM | > 50 µM |  |  |  | 0.06 µM |  |  | 
3 | CCc1ccc(S(=O)(=O)Nc2cc(-n3c(C)nc4ccccc4c3=O)ccc2F)s1 [GSK223] | > 50 µM | > 50 µM | > 50 µM | 49 ×10⁻⁶ cm/s | 4.27 | 327 µM (≈ 145 µg/mL) | 1 µM |  | 80.81% | 97.38%
4 | Cc1nc2ccc(NC(=O)c3cccc(NS(=O)(=O)c4ccc(F)cc4)c3)cc2s1 [GSK966] | > 50 µM | > 50 µM | > 100 µM | 30 ×10⁻⁶ cm/s | 4.64 | 41 µM (≈ 18.1 µg/mL) | 3.5 µM |  | 83.38% | 97.14%
5 | Cn1c(=O)[nH]c(=O)c2c1nc(CCSc1ccccc1)n2Cc1ccccc1 [SB711] | > 50 µM | > 50 µM | > 100 µM |  | 5.95 | 2 µM (≈ 0.785 µg/mL) | 0.6 µM |  |  | 95.94%
